Source: patent US20260274814A1, “THIENYL COMPOUNDS FOR THE TREATMENT OF A CENTRAL NERVOUS SYSTEM DISEASE OR DISORDER” (Coreterra Therapeutics, Inc., priority 2023, published 2026)
Counter-ions that a name gives are not always drawn.

Tested on: mice
Assay: Neuropharmacological Assay (SmartCube): automated behavioral signature of compound-treated mice compared with a database of reference drug classes
Assay type: in vivo
Details: for minimal effective dose: Mus musculus, ip, read-out: MED (minimal effective dose); for minimal effective dose / MED (minimal effective dose): dose having 45% or more total activity in SmartCube, i.p., if only one dose was tested, that dose is shown; for AD / AG / AN / CE / HL / MS / PS / SH / AP / AX / UK: probability that activity matches this class of agents, 3.0 mg/kg i.p., 15 min before test
Outline: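 Dose-response work typically spanned 0.3–10 mpk, widened or narrowed to obtain a full curve, with i.p. administration 15 min pre-test. MED is defined as the dose producing ≥45% total SmartCube activity; single-dose entries list the tested dose.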

| Structure (SMILES) | minimal effective dose | AD | AG | AN | CE | HL | MS | PS | SH | AP (3 mg/kg) | AX (3 mg/kg) | UK (3 mg/kg) | MED (minimal effective dose) | AP | AX | UK | PS (3 mg/kg) | AD (3 mg/kg) |
| --- | --- | --- | --- | --- | --- | --- | --- | --- | --- | --- | --- | --- | --- | --- | --- | --- | --- | --- |
| CNC1CCc2sc(F)cc2C1 (single isomer, unassigned; enantiomer 1) [Compound 98, 2-fluoro-N-methyl-4,5,6,7-tetrahydrobenzothiophen-5-amine hydrochloride enantiomer 1] | 3 mg/kg | ND (^ <4%) | ND (^ <4%) | ND (^ <4%) | ND (^ <4%) | ND (^ <4%) | ND (^ <4%) | ND (^ <4%) | ND (^ <4%) | ++ (≥24%) | + (≥4%) | ++ (≥24%) | – | – | – | – | – | – |
| CNC1(C)CCc2cscc2C1 (single isomer, unassigned; enantiomer 1) [Compound 101, N, 5-dimethyl-6,7-dihydro-4H-2-benzothiophen-5-amine hydrochloride enantiomer 1] | – | ++++ (≥74%) | ND (^ <4%) | ND (^ <4%) | ND (^ <4%) | ND (^ <4%) | ND (^ <4%) | – | ND (^ <4%) | – | – | – | 3 mpk | ND (^ <4%) | ND (^ <4%) | ND (^ <4%) | ND (^ <4%) | – |
| CNC1CCc2c(C)sc(C(F)(F)F)c2C1 (single isomer, unassigned; enantiomer 1) [Compound 104, N, 1-dimethyl-3-(trifluoromethyl)-4,5,6,7-tetrahydro-2-benzothiophen-5-amine hydrochloride enantiomer 1] | 3 mg/kg | ND (^ <4%) | ND (^ <4%) | ND (^ <4%) | ND (^ <4%) | ND (^ <4%) | ND (^ <4%) | ND (^ <4%) | ND (^ <4%) | ++ (≥24%) | – | ++ (≥24%) | – | – | ND (^ <4%) | – | – | – |
| CNC1CCc2c(C(F)(F)F)sc(C)c2C1 (single isomer, unassigned; enantiomer 1) [Compound 106, N, 3-dimethyl-1-(trifluoromethyl)-4,5,6,7-tetrahydro-2-benzothiophen-5-amine hydrochloride enantiomer 1] | – | – | ND (^ <4%) | ND (^ <4%) | ND (^ <4%) | ND (^ <4%) | ND (^ <4%) | ND (^ <4%) | ND (^ <4%) | – | – | ++ (≥24%) | 3 mpk | ND (^ <4%) | ND (^ <4%) | – | – | + (≥4%) |
| CNC1CCc2sc(F)cc2C1 (single isomer, unassigned; enantiomer 2) [Compound 99, 2-fluoro-N-methyl-4,5,6,7-tetrahydrobenzothiophen-5-amine hydrochloride enantiomer 2] | – | ND (^ <4%) | ND (^ <4%) | ND (^ <4%) | ND (^ <4%) | ND (^ <4%) | ND (^ <4%) | ND (^ <4%) | ND (^ <4%) | ND (^ <4%) | ND (^ <4%) | +++ (≥49%) | 3 mpk | – | – | – | – | – |
| CNC1(C)CCc2cscc2C1 (single isomer, unassigned; enantiomer 2) [Compound 102, N, 5-dimethyl-6,7-dihydro-4H-2-benzothiophen-5-amine hydrochloride enantiomer 2] | – | ++++ (≥74%) | ND (^ <4%) | ND (^ <4%) | ND (^ <4%) | ND (^ <4%) | ND (^ <4%) | – | ND (^ <4%) | – | – | – | 1 mpk | ND (^ <4%) | ND (^ <4%) | ND (^ <4%) | + (≥4%) | – |
| CNC1CCc2c(C)sc(C(F)(F)F)c2C1 (single isomer, unassigned; enantiomer 2) [Compound 105, N, 1-dimethyl-3-(trifluoromethyl)-4,5,6,7-tetrahydro-2-benzothiophen-5-amine hydrochloride enantiomer 2] | – | ND (^ <4%) | ND (^ <4%) | ND (^ <4%) | ND (^ <4%) | ND (^ <4%) | ND (^ <4%) | ND (^ <4%) | ND (^ <4%) | ND (^ <4%) | – | ND (^ <4%) | >3 mpk | – | ND (^ <4%) | – | – | – |
| CNC1CCc2c(C(F)(F)F)sc(C)c2C1 (single isomer, unassigned; enantiomer 2) [Compound 107, N, 3-dimethyl-1-(trifluoromethyl)-4,5,6,7-tetrahydro-2-benzothiophen-5-amine hydrochloride enantiomer 2] | – | – | ND (^ <4%) | ND (^ <4%) | ND (^ <4%) | ND (^ <4%) | ND (^ <4%) | ND (^ <4%) | ND (^ <4%) | – | – | ND (^ <4%) | 10 mpk | ND (^ <4%) | ND (^ <4%) | – | – | ND (^ <4%) |
| CNC1Cc2cscc2C1.Cl [Compound 21, N-methyl-5,6-dihydro-4H-cyclopenta[c]thiophen-5-amine hydrochloride] | 3 mg/kg | ND (^ <4%) | ND (^ <4%) | ND (^ <4%) | ND (^ <4%) | ND (^ <4%) | ND (^ <4%) | ND (^ <4%) | ND (^ <4%) | – | – | – | – | ND (^ <4%) | ND (^ <4%) | +++ (≥49%) | – | – |
| CNC1CC=Cc2ccsc2C1.Cl (stereo not drawn) [Compound 24, N-methyl-7,8-dihydro-6H-cyclohepta[b]thiophen-7-amine hydrochloride] | 3 mg/kg | ND (^ <4%) | ND (^ <4%) | ND (^ <4%) | ND (^ <4%) | ND (^ <4%) | ND (^ <4%) | ND (^ <4%) | +++ (≥49%) | – | – | – | – | ND (^ <4%) | ND (^ <4%) | ND (^ <4%) | – | – |
| CNC1CCc2sc(F)cc2C1 (stereo not drawn) [Compound 82, 2-fluoro-N-methyl-4,5,6,7-tetrahydrobenzothiophen-5-amine hydrochloride] | 3 mg/kg | ++ (≥24%) | ND (^ <4%) | ND (^ <4%) | ND (^ <4%) | ND (^ <4%) | ND (^ <4%) | ND (^ <4%) | ND (^ <4%) | – | – | – | – | + (≥4%) | ND (^ <4%) | ++ (≥24%) | – | – |
| CNC1COc2csc(Cl)c2C1 (stereo not drawn) [Compound 87, 5-chloro-N-methyl-3,4-dihydro-2H-thieno[3,4-b]pyran-3-amine hydrochloride] | 3 mg/kg | ND (^ <4%) | ND (^ <4%) | ND (^ <4%) | ND (^ <4%) | ND (^ <4%) | ND (^ <4%) | ND (^ <4%) | ND (^ <4%) | – | – | – | – | +++ (≥49%) | ND (^ <4%) | ND (^ <4%) | – | – |
| CNC1COc2csc(C)c2C1 (stereo not drawn) [Compound 88, N, 5-dimethyl-3,4-dihydro-2H-thieno[3,4-b]pyran-3-amine hydrochloride] | 3 mg/kg | ND (^ <4%) | ND (^ <4%) | ND (^ <4%) | ND (^ <4%) | ND (^ <4%) | ND (^ <4%) | ND (^ <4%) | ND (^ <4%) | – | – | – | – | ++++ (≥74%) | ND (^ <4%) | ND (^ <4%) | – | – |
| NC1CCc2csc(Cl)c2C1 (stereo not drawn) [Compound 89, 3-chloro-4,5,6,7-tetrahydro-2-benzothiophen-5-amine hydrochloride] | 3 mg/kg | ND (^ <4%) | ND (^ <4%) | ND (^ <4%) | ND (^ <4%) | ND (^ <4%) | ++ (≥24%) | ND (^ <4%) | ND (^ <4%) | – | – | – | – | ND (^ <4%) | + (≥4%) | ND (^ <4%) | – | – |
| CNC1CCc2scc(Cl)c2C1 (stereo not drawn) [Compound 90, 3-chloro-N-methyl-4,5,6,7-tetrahydrobenzothiophen-5-amine hydrochloride] | 3 mg/kg | ND (^ <4%) | ND (^ <4%) | ND (^ <4%) | ND (^ <4%) | ND (^ <4%) | ND (^ <4%) | ND (^ <4%) | ND (^ <4%) | – | – | – | – | +++ (≥49%) | ND (^ <4%) | ND (^ <4%) | – | – |
| CNC1CCc2c(sc(C(F)(F)F)c2C)C1 (stereo not drawn) [Compound 91, N, 3-dimethyl-2-(trifluoromethyl)-4,5,6,7-tetrahydrobenzothiophen-6-amine hydrochloride] | > 3 mg/kg | ND (^ <4%) | ND (^ <4%) | ND (^ <4%) | ND (^ <4%) | ND (^ <4%) | ND (^ <4%) | ND (^ <4%) | ND (^ <4%) | – | – | – | – | ND (^ <4%) | ND (^ <4%) | ++ (≥24%) | – | – |
